Test results reported in PubChem BioAssay AID1259407 (Chemical Carcinogenesis Research Information System (CCRIS), 2018).
Activity calls are given as the source filed them. No rule for the calls is given here.

System: CCRIS mutagenicity, Ames/micronucleus/aberration tests
Experiment: CCRIS mutagenicity studies

For `Nc1ccc(Cl)c(N)c1`, the mutagenic call (End Point: IN VITRO CHROMOSOMAL ABERRATIONS, Test System: CHL CELLS, Metabolic Activation: RAT, LIVER, S-9, SODIUM PHENOBARBITAL AND 5,6-BENZOFLAVONE) was “active; positive (structural changes)”, the mutagenic call (End Point: IN VITRO CHROMOSOMAL ABERRATIONS, Test System: CHO-LB CELLS, Metabolic Activation: RAT, LIVER, S-9, AROCLOR 1254) was “inactive; negative” and the mutagenic call (Test System: AMES SALMONELLA TYPHIMURIUM, Strain/Indicator: TA98, Metabolic Activation: HAMSTER, LIVER, S-9, AROCLOR 1254, Method: STANDARD PLATE) was “active; positive”. For the same compound, the mutagenic call (Test System: AMES SALMONELLA TYPHIMURIUM, Strain/Indicator: TA98, Metabolic Activation: HAMSTER, LIVER, S-9, Method: STANDARD PLATE) was “active; positive”, the mutagenic call (Test System: AMES SALMONELLA TYPHIMURIUM, Strain/Indicator: TA98, Metabolic Activation: MOUSE, LIVER, S-9, AROCLOR 1254, Method: STANDARD PLATE) was “active; positive” and the mutagenic call (Test System: AMES SALMONELLA TYPHIMURIUM, Strain/Indicator: TA98, Metabolic Activation: MOUSE, LIVER, S-9, Method: STANDARD PLATE) was “active; positive”. The mutagenic call (Test System: AMES SALMONELLA TYPHIMURIUM, Strain/Indicator: TA98, Metabolic Activation: RAT, LIVER, S-9, AROCLOR 1254, Method: STANDARD PLATE) was “active; positive”, the mutagenic call (Test System: AMES SALMONELLA TYPHIMURIUM, Strain/Indicator: TA98, Metabolic Activation: RAT, LIVER, S-9, Method: STANDARD PLATE) was “active; positive” and the mutagenic call (Test System: AMES SALMONELLA TYPHIMURIUM, Strain/Indicator: TA100, Metabolic Activation: HAMSTER, LIVER, S-9, AROCLOR 1254, Method: STANDARD PLATE) was “active; positive”. For the same compound, the mutagenic call (Test System: AMES SALMONELLA TYPHIMURIUM, Strain/Indicator: TA100, Metabolic Activation: NONE, Method: STANDARD PLATE) was “inactive; negative”, the mutagenic call (Test System: AMES SALMONELLA TYPHIMURIUM, Strain/Indicator: TA100, Metabolic Activation: RAT, LIVER, S-9, AROCLOR 1254, Method: STANDARD PLATE) was “active; positive” and the mutagenic call (Test System: AMES SALMONELLA TYPHIMURIUM, Strain/Indicator: TA1535, Metabolic Activation: HAMSTER, LIVER, S-9, AROCLOR 1254, Method: STANDARD PLATE) was “inactive; negative”. The mutagenic call (Test System: AMES SALMONELLA TYPHIMURIUM, Strain/Indicator: TA1535, Metabolic Activation: HAMSTER, LIVER, S-9, Method: STANDARD PLATE) was “inactive; negative”, the mutagenic call (Test System: AMES SALMONELLA TYPHIMURIUM, Strain/Indicator: TA1535, Metabolic Activation: MOUSE, LIVER, S-9, AROCLOR 1254, Method: STANDARD PLATE) was “inactive; negative” and the mutagenic call (Test System: AMES SALMONELLA TYPHIMURIUM, Strain/Indicator: TA1535, Metabolic Activation: MOUSE, LIVER, S-9, Method: STANDARD PLATE) was “inactive; negative”. The mutagenic call (Test System: AMES SALMONELLA TYPHIMURIUM, Strain/Indicator: TA1535, Metabolic Activation: NONE, Method: STANDARD PLATE) was “inactive; negative”, the mutagenic call (Test System: AMES SALMONELLA TYPHIMURIUM, Strain/Indicator: TA1535, Metabolic Activation: RAT, LIVER, S-9, Method: STANDARD PLATE) was “inactive; negative” and the mutagenic call (Test System: AMES SALMONELLA TYPHIMURIUM, Strain/Indicator: TA1537, Metabolic Activation: HAMSTER, LIVER, S-9, AROCLOR 1254, Method: STANDARD PLATE) was “active; positive”. The mutagenic call (Test System: AMES SALMONELLA TYPHIMURIUM, Strain/Indicator: TA1537, Metabolic Activation: HAMSTER, LIVER, S-9, Method: STANDARD PLATE) was “active; positive”, the mutagenic call (Test System: AMES SALMONELLA TYPHIMURIUM, Strain/Indicator: TA1537, Metabolic Activation: MOUSE, LIVER, S-9, AROCLOR 1254, Method: STANDARD PLATE) was “active; positive” and the mutagenic call (Test System: AMES SALMONELLA TYPHIMURIUM, Strain/Indicator: TA1537, Metabolic Activation: NONE, Method: STANDARD PLATE) was “inactive; negative”. For the same compound, the mutagenic call (Test System: AMES SALMONELLA TYPHIMURIUM, Strain/Indicator: TA1537, Metabolic Activation: RAT, LIVER, S-9, AROCLOR 1254, Method: STANDARD PLATE) was “active; positive”, the mutagenic call (Test System: AMES SALMONELLA TYPHIMURIUM, Strain/Indicator: TA1537, Metabolic Activation: RAT, LIVER, S-9, Method: STANDARD PLATE) was “inactive; negative” and the mutagenic call (Test System: AMES SALMONELLA TYPHIMURIUM, Strain/Indicator: TA1538, Metabolic Activation: HAMSTER, LIVER, S-9, AROCLOR 1254, Method: STANDARD PLATE) was “active; positive”. For the same compound, the mutagenic call (Test System: AMES SALMONELLA TYPHIMURIUM, Strain/Indicator: TA1538, Metabolic Activation: HAMSTER, LIVER, S-9, Method: STANDARD PLATE) was “active; positive”, the mutagenic call (Test System: AMES SALMONELLA TYPHIMURIUM, Strain/Indicator: TA1538, Metabolic Activation: MOUSE, LIVER, S-9, AROCLOR 1254, Method: STANDARD PLATE) was “active; positive” and the mutagenic call (Test System: AMES SALMONELLA TYPHIMURIUM, Strain/Indicator: TA1538, Metabolic Activation: MOUSE, LIVER, S-9, Method: STANDARD PLATE) was “active; positive”. The mutagenic call (Test System: AMES SALMONELLA TYPHIMURIUM, Strain/Indicator: TA1538, Metabolic Activation: RAT, LIVER, S-9, AROCLOR 1254, Method: STANDARD PLATE) was “active; positive”, the mutagenic call (Test System: AMES SALMONELLA TYPHIMURIUM, Strain/Indicator: TA1538, Metabolic Activation: RAT, LIVER, S-9, Method: STANDARD PLATE) was “active; positive” and the mutagenic call (Test System: E. COLI, Strain/Indicator: WP2 UVRA, Metabolic Activation: HAMSTER, LIVER, S-9, AROCLOR 1254, Method: STANDARD PLATE) was “inactive; negative”. For the same compound, the mutagenic call (Test System: E. COLI, Strain/Indicator: WP2 UVRA, Metabolic Activation: HAMSTER, LIVER, S-9, Method: STANDARD PLATE) was “inactive; negative”, the mutagenic call (Test System: E. COLI, Strain/Indicator: WP2 UVRA, Metabolic Activation: MOUSE, LIVER, S-9, AROCLOR 1254, Method: STANDARD PLATE) was “inactive; negative” and the mutagenic call (Test System: E. COLI, Strain/Indicator: WP2 UVRA, Metabolic Activation: MOUSE, LIVER, S-9, Method: STANDARD PLATE) was “inactive; negative”. For the same compound, the mutagenic call (Test System: E. COLI, Strain/Indicator: WP2 UVRA, Metabolic Activation: NONE, Method: STANDARD PLATE) was “inactive; negative”, the mutagenic call (Test System: E. COLI, Strain/Indicator: WP2 UVRA, Metabolic Activation: RAT, LIVER, S-9, AROCLOR 1254, Method: STANDARD PLATE) was “inactive; negative” and the mutagenic call (Test System: E. COLI, Strain/Indicator: WP2 UVRA, Metabolic Activation: RAT, LIVER, S-9, Method: STANDARD PLATE) was “inactive; negative”.
